Earlier results on 1 compound are cited in patent publication US10568936B2, “Pharmaceutical composition for transmucosal delivery and methods for treating diabetes in a subject in need thereof” (Eastgate Pharmaceuticals Inc., priority 2014, dated 2020).

The conditions of data set [1]: eutectic mixture with menthol.

In the case of `C[C@]12CC[C@H]3[C@@H](CCC4=CC(=O)CC[C@@]43C)[C@@H]1CC[C@@H]2O` [testosterone], the “Increase in the solubility of testosterone in an aqueous ethanol vehicle” value in data set [1] is 2.8 fold. Moreover, where the note is “eutectic mixture with menthol”, the “Increase in the flux of testosterone” value was 2.8 fold. Besides, where the note is “high concentration of menthol”, the “Further increase in skin flux” value is given as “eight times the base line”.
